One may read the TGI as the concentration at which net growth stops. Lower therefore signals greater sensitivity of the cells. As usually defined, the GI50 is the concentration that inhibits growth by half.

The record followed here is PubChem BioAssay (NCI).

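96-well plates; 48 h exposure; 5 concentrations. Endpoints by linear interpolation between flanking doses. Not reached: highest tested concentration assigned. Abbreviation: GI50, concentration required for 50% inhibition of growth. TGI marks complete inhibition of growth.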 A value given as a limit tells only on which side of the number the result lay.

Test systems include CAKI-1 renal; 786-0 renal; MALME-3M melanoma; UACC-62 melanoma; OVCAR-5 ovarian; NCI-H522 lung; U251 CNS; HT29 colon; SK-MEL-2 melanoma; ACHN renal.
Holding throughout (test): DTP human tumour cell line panel, 48 h

Turning to `Cc1nc2c(nc1C)C(=O)c1ccccc1C2=O`, the TGI in the assay with CAKI-1 renal came out at 61.9 µM; with 786-0 renal it was 47.1 µM; with MALME-3M melanoma, 0.704 µM; in the assay with UACC-62 melanoma it was 2.42 µM; in the assay with OVCAR-5 ovarian it was 9.62 µM; in the assay with NCI-H522 lung, 10.7 µM. The TGI is 34.6 µM with U251 CNS, 11.7 µM in the assay with HT29 colon, 6.57 µM in the assay on SK-MEL-2 melanoma and 35.4 µM with ACHN renal.
Take `COc1ccc(-n2/c(=N/C(=S)N(C)C)ss/c2=N\C(=S)N(C)C)cc1`: the TGI in the assay on CAKI-1 renal was > 100 µM; with 786-0 renal, > 100 µM; with MALME-3M melanoma, > 100 µM; with UACC-62 melanoma it was 24.8 µM; in the assay on OVCAR-5 ovarian it was > 100 µM; with NCI-H522 lung, 16.6 µM. In addition, the TGI was > 100 µM in the assay on U251 CNS, 5.97 µM in the assay on HT29 colon, > 100 µM with SK-MEL-2 melanoma and > 100 µM with ACHN renal.
On to `O=C1C2=C(SCCS2)C(=O)c2ccccc21`, for which the TGI worked out at 3.32 µM in the assay with CAKI-1 renal; 3.12 µM in the assay on 786-0 renal; 3.2 µM in the assay on MALME-3M melanoma; 3.04 µM in the assay with UACC-62 melanoma; 3.23 µM in the assay on OVCAR-5 ovarian; 3.17 µM with NCI-H522 lung. The TGI stood at 3.02 µM with U251 CNS, 4.44 µM in the assay with HT29 colon, 4.07 µM with SK-MEL-2 melanoma and 3.05 µM in the assay on ACHN renal.
As to `Clc1cccc(Cc2cn3cc(-c4ccccc4)nc3s2)c1Cl`, the GI50 in the assay with CAKI-1 renal is > 100 µM; with 786-0 renal it was > 100 µM; with MALME-3M melanoma it was 56.2 µM; with UACC-62 melanoma, 1.83 µM; in the assay with OVCAR-5 ovarian it was > 100 µM; in the assay on NCI-H522 lung, 19.4 µM. In addition, the GI50 in the assay with U251 CNS was 25.5 µM; in the assay with HT29 colon, > 100 µM; in the assay on SK-MEL-2 melanoma, 22.3 µM; in the assay on ACHN renal, 30.2 µM. The TGI in the assay on CAKI-1 renal, with 786-0 renal, in the assay on MALME-3M melanoma, in the assay on UACC-62 melanoma, in the assay on OVCAR-5 ovarian and in the assay on NCI-H522 lung was > 100 µM in each case. In addition, the TGI in the assay with U251 CNS was > 100 µM; in the assay on HT29 colon, > 100 µM; in the assay with SK-MEL-2 melanoma it was 80.8 µM; in the assay on ACHN renal, > 100 µM.
As to `O=C(N/C(=C\c1cc(Cl)ccc1Cl)c1nc2[nH]c(=S)[nH]c(=O)c2[nH]1)c1ccccc1`, the TGI in the assay with CAKI-1 renal is > 100 µM; in the assay on 786-0 renal, 32.2 µM; in the assay with MALME-3M melanoma it was > 100 µM; with UACC-62 melanoma, > 92.9 µM; in the assay with OVCAR-5 ovarian, > 100 µM; with NCI-H522 lung, > 100 µM. Further, the TGI in the assay on U251 CNS was > 76.1 µM; in the assay on HT29 colon, 39.6 µM; in the assay with SK-MEL-2 melanoma it was > 100 µM; in the assay on ACHN renal, > 100 µM.
Take `CCOC(=O)c1ncn2c1[nH]c(=S)c1ccccc12`: the TGI in the assay on CAKI-1 renal, in the assay with 786-0 renal, in the assay with MALME-3M melanoma, in the assay on UACC-62 melanoma, in the assay on OVCAR-5 ovarian and in the assay with NCI-H522 lung was > 100 µM in each case. Also, the TGI with U251 CNS, in the assay on HT29 colon, in the assay on SK-MEL-2 melanoma and with ACHN renal was > 100 µM each time.
With `COc1ccc(/C=C\c2cc(OC)c3c(c2)OCO3)c(O)c1O`, the TGI with CAKI-1 renal amounted to 20.5 µM; in the assay with 786-0 renal it was 14.7 µM; in the assay with MALME-3M melanoma, 48.7 µM; in the assay on UACC-62 melanoma, 14 µM; in the assay with OVCAR-5 ovarian, 55 µM; in the assay on NCI-H522 lung, 3.53 µM. The TGI stood at 19.3 µM in the assay on U251 CNS, 47.2 µM in the assay on HT29 colon, 42.6 µM in the assay on SK-MEL-2 melanoma and 32.7 µM with ACHN renal.
`CN(C)c1ccc(-c2cc(-c3ccc(Nc4nc(Nc5ccc(Cl)cc5)nc(Nc5ccc(Cl)cc5)n4)cc3)no2)cc1`: the GI50 is 2.8 µM in the assay on CAKI-1 renal; 1.51 µM with 786-0 renal; 13 µM with MALME-3M melanoma; 17.1 µM in the assay with UACC-62 melanoma; 17.3 µM in the assay with OVCAR-5 ovarian; 2.57 µM with NCI-H522 lung. Further, the GI50 in the assay on U251 CNS is 6.27 µM; in the assay with HT29 colon it was 5.08 µM; with SK-MEL-2 melanoma it was 2.87 µM; in the assay on ACHN renal, 7.9 µM. For the same compound, the TGI in the assay with CAKI-1 renal is > 100 µM; in the assay with 786-0 renal, 3.66 µM; in the assay with MALME-3M melanoma it was 36.9 µM; with UACC-62 melanoma, 62.2 µM; in the assay on OVCAR-5 ovarian, 50.2 µM; with NCI-H522 lung, 11.3 µM. For the same compound, the TGI with U251 CNS is 61.8 µM; in the assay with HT29 colon, 66.5 µM; in the assay on SK-MEL-2 melanoma, 11 µM; with ACHN renal, > 100 µM.
As for `O=C(Nc1ccc(F)cc1F)c1cc(I)ccc1O`, the GI50 in the assay on CAKI-1 renal was 1.92 µM; with 786-0 renal, 3.13 µM; with MALME-3M melanoma it was 2.08 µM; with UACC-62 melanoma, 1.46 µM; in the assay with OVCAR-5 ovarian it was 3.72 µM; in the assay with NCI-H522 lung it was 2.73 µM. In addition, the GI50 in the assay on U251 CNS is 3.07 µM; in the assay on HT29 colon, 4.06 µM; in the assay with SK-MEL-2 melanoma, 2.29 µM; in the assay on ACHN renal, 2.5 µM. Moreover, the TGI in the assay on CAKI-1 renal was 6.49 µM; with 786-0 renal, 9.7 µM; in the assay with MALME-3M melanoma it was 6.45 µM; with UACC-62 melanoma, 4.49 µM; in the assay on OVCAR-5 ovarian, > 100 µM; with NCI-H522 lung, 14.1 µM. For the same compound, the concentration for total growth inhibition (TGI) in the assay on U251 CNS was > 100 µM; with HT29 colon, > 100 µM; in the assay on SK-MEL-2 melanoma it was 6.07 µM; in the assay on ACHN renal, 7.62 µM.
For the compound `O=C1/C(=C/c2ccc([N+](=O)[O-])cc2)COc2ccc(O)c(O)c21`, the GI50 in the assay on CAKI-1 renal was 1.27 µM; in the assay on 786-0 renal, 1.35 µM; in the assay on MALME-3M melanoma, 1.84 µM; in the assay with UACC-62 melanoma, 1.57 µM; in the assay with OVCAR-5 ovarian, 1.81 µM; in the assay with NCI-H522 lung, 0.204 µM. Moreover, the GI50 in the assay with U251 CNS was 0.785 µM; in the assay on HT29 colon, 2.2 µM; in the assay with SK-MEL-2 melanoma it was 1.87 µM; with ACHN renal, 1.5 µM. In addition, the TGI with CAKI-1 renal was 2.54 µM; in the assay on 786-0 renal it was 3.59 µM; in the assay with MALME-3M melanoma, 5.22 µM; in the assay on UACC-62 melanoma it was 3.35 µM; with OVCAR-5 ovarian, 3.74 µM; with NCI-H522 lung it was 0.474 µM. The concentration for total growth inhibition (TGI) in the assay with U251 CNS came out at 3.55 µM; in the assay with HT29 colon it was 5.85 µM; in the assay with SK-MEL-2 melanoma, 4.37 µM; in the assay with ACHN renal it was 2.92 µM.
